According to patent US6913760B2, “Drug delivery composition” (New England Medical Hospitals, Inc., priority 2001, dated 2005):
Several values for one entry are separate records, joined by “and”; a condition that tells them apart may be missing. Identical values can stand only once. Marks after values point to notes of the source that are not given here.

How the values were obtained:
[1] = tested on: rats; test: Tail flick test after intrathecal implantation of PLGA rods; type: in vivo; details: for % MPE, tail flick test, Average: average of 6 rats
[2] = tested on: rats; test: Paw withdrawal test after intrathecal implantation of PLGA rods; type: in vivo; details: for % MPE, paw withdrawal test, Average: average of 6 rats; as to Area under the curve (AUC), paw withdrawal test (left side), Mean: unit not given here; as to Area under the curve (AUC), paw withdrawal test (left side): unit not given here; as to Area under the curve (AUC), paw withdrawal test (right side), Mean: unit not given here; as to Area under the curve (AUC), paw withdrawal test (right side): unit not given here
[3] = Drug release studies of PLGA 85:15 rods (Example 2); type: physicochemical
[4] = tested on: rats; test: Anesthesia after intrathecal polymeric implants, all sites tested (Example 2); type: in vivo; details: intrathecal rods
[5] = trapezoidal method, individual rats
[6] = trapezoidal method, mean of 6 rats

C[C@@H](NC(=O)[C@@H](N)Cc1ccc(O)cc1)C(=O)NCC(=O)N[C@@H](Cc1ccccc1)C(=O)NNC(=O)[C@H](Cc1ccccc1)NC(=O)CNC(=O)[C@@H](C)NC(=O)[C@@H](N)Cc1ccc(O)cc1 [Biphalin]
% MPE, tail flick test, Average ([1]; 2h): 86.67 % MPE
% MPE, tail flick test ([1]; 2h after intrathecal implantation of PLGA rod, individual rats): 80 % MPE and 96.46 % MPE and 86.99 % MPE and 84.66 % MPE and 76.49 % MPE and 95.43 % MPE
% MPE, tail flick test, Average ([1]; 4h): 91.63 % MPE
% MPE, tail flick test ([1]; 4h, individual rats): 85.6 % MPE and 83.65 % MPE and 91.6 % MPE and 100 % MPE (2×) and 88.92 % MPE
Area under the curve (AUC), tail flick test ([1]; % MPE versus time in days, trapezoidal method, individual rats): 280.84 and 263.66 and 251.97 and 276.26 and 343.10 and 236.51
Area under the curve (AUC), tail flick test, Mean ([1]; % MPE versus time in days, trapezoidal method, mean of 6 rats): 275.39 *
% MPE, tail flick test, Average ([1]; D1): 82.2 % MPE
% MPE, tail flick test ([1]; D1, individual rats): 84.8 % MPE and 71.9346 % MPE and 75.88 % MPE and 100 % MPE and 72.97 % MPE and 87.63 % MPE
% MPE, tail flick test, Average ([1]; D2): 73.13 % MPE
% MPE, tail flick test ([1]; D2, individual rats): 73.6 % MPE and 73.297 % MPE and 69.9187 % MPE and 90.48 % MPE and 55.14 % MPE and 76.34 % MPE
% MPE, tail flick test, Average ([1]; D3): 46.93 % MPE
% MPE, tail flick test ([1]; D3, individual rats): 32.53 % MPE and 35.15 % MPE and 36.59 % MPE and 73.54 % MPE and 50.27 % MPE and 53.49 % MPE
% MPE, tail flick test, Average ([1]; D4): 24 % MPE
% MPE, tail flick test ([1]; D4, individual rats): 22.67 % MPE and 20.16 % MPE and 31.17 % MPE and 33.33 % MPE and 21.08 % MPE and 15.5914 % MPE
% MPE, tail flick test, Average ([1]; D5): 9.086 % MPE
% MPE, tail flick test ([1]; D5, individual rats): 9.067 % MPE and 12.26 % MPE and 21.14 % MPE and 3.175 % MPE and 1.081 % MPE and 7.796 % MPE
% MPE, tail flick test, Average ([1]; D6): 2.009 % MPE
% MPE, tail flick test ([1]; D6, individual rats): 10.4 % MPE and 5.177 % MPE and 4.065 % MPE and 2.381 % MPE and −4.324 ^ % MPE and −5.645 ^ % MPE
% MPE, paw withdrawal test, Average ([2]; 2h, L): 100 % MPE
% MPE, paw withdrawal test, Average ([2]; 2h, R): 100 % MPE
% MPE, paw withdrawal test ([2]; 2h, left (L) hind paw, individual rats): 100 % MPE
% MPE, paw withdrawal test ([2]; 2h, right (R) hind paw, individual rats): 100 % MPE
% MPE, paw withdrawal test, Average ([2]; 4h, L): 100 % MPE
% MPE, paw withdrawal test ([2]; 4h, L, individual rats): 100 % MPE
% MPE, paw withdrawal test, Average ([2]; 4h, R): 100 % MPE
% MPE, paw withdrawal test ([2]; 4h, R, individual rats): 100 % MPE
% MPE, paw withdrawal test, Average ([2]; D1, L): 14.47 % MPE
% MPE, paw withdrawal test ([2]; D1, L, individual rats): 30.27 % MPE and 7.30 % MPE and −1.89 % MPE and 10.92 % MPE and 18.44 % MPE and 21.78 % MPE
% MPE, paw withdrawal test, Average ([2]; D1, R): 16.56 % MPE
% MPE, paw withdrawal test ([2]; D1, R, individual rats): 38.69 % MPE and 10.29 % MPE and −2.32 % MPE and 10.84 % MPE and 16.61 % MPE and 25.27 % MPE
% MPE, paw withdrawal test, Average ([2]; D2, L): 8.34 % MPE
% MPE, paw withdrawal test ([2]; D2, L, individual rats): 6.46 % MPE and 1.46 % MPE and −5.68 % MPE and 12.97 % MPE and 20.92 % MPE and 13.93 % MPE
% MPE, paw withdrawal test, Average ([2]; D2, R): 6.03 % MPE
% MPE, paw withdrawal test ([2]; D2, R, individual rats): 4.92 % MPE and 0.37 % MPE and −6.20 % MPE and 9.44 % MPE and 16.61 % MPE and 11.03 % MPE
% MPE, paw withdrawal test, Average ([2]; D3, L): 7.52 % MPE
% MPE, paw withdrawal test ([2]; D3, L, individual rats): −2.04 % MPE and 10.58 % MPE and 12.12 % MPE and 17.06 % MPE and 12.06 % MPE and −4.64 % MPE
% MPE, paw withdrawal test, Average ([2]; D3, R): 8.40 % MPE
% MPE, paw withdrawal test ([2]; D3, R, individual rats): 7.54 % MPE and 9.92 % MPE and 9.30 % MPE and 13.64 % MPE and 11.07 % MPE and −1.07 % MPE
% MPE, paw withdrawal test, Average ([2]; D4, L): 1.86 % MPE
% MPE, paw withdrawal test ([2]; D4, L, individual rats): 2.27 % MPE and 11.94 % MPE and 2.84 % MPE and 2.14 % MPE and 0.34 % MPE and −8.39 % MPE
% MPE, paw withdrawal test, Average ([2]; D4, R): 1.02 % MPE
% MPE, paw withdrawal test ([2]; D4, R, individual rats): −0.78 % MPE and 9.44 % MPE and 2.21 % MPE and −2.14 % MPE and 3.28 % MPE and −5.88 % MPE
% MPE, paw withdrawal test, Average ([2]; D5, L): 3.36 % MPE
% MPE, paw withdrawal test ([2]; D5, L, individual rats): 18.18 % MPE and 15.02 % MPE and 2.13 % MPE and −5 % MPE and 4.42 % MPE and −14.60 % MPE
% MPE, paw withdrawal test, Average ([2]; D5, R): 4.72 % MPE
% MPE, paw withdrawal test ([2]; D5, R, individual rats): 21.32 % MPE and 17.48 % MPE and 0.37 % MPE and −2.49 % MPE and 8.52 % MPE and −16.91 % MPE
% MPE, paw withdrawal test, Average ([2]; D6, L): 0.45 % MPE
% MPE, paw withdrawal test ([2]; D6, L, individual rats): 14.39 % MPE and 2.73 % MPE and −0.35 % MPE and −5.71 % MPE and −0.68 % MPE and −7.66 % MPE
% MPE, paw withdrawal test, Average ([2]; D6, R): 0.00 % MPE
% MPE, paw withdrawal test ([2]; D6, R, individual rats): 15.89 % MPE and 2.45 % MPE and −3.32 % MPE and −5.34 % MPE and 0.98 % MPE and −10.6 % MPE
Area under the curve (AUC), paw withdrawal test (left side) [2, 5]: 41.94 and 82.35 and 118.40 and 104.74 and 73.61 and 86.69
Area under the curve (AUC), paw withdrawal test (right side) [2, 5]: 41.65 and 79.45 and 111.20 and 93.88 and 75.91 and 110.34
Area under the curve (AUC), paw withdrawal test (left side), Mean [2, 6]: 84.62 *
Area under the curve (AUC), paw withdrawal test (right side), Mean [2, 6]: 85.40 *
release order [3]: two phases
duration of anesthesia/analgesia [4]: about 3 days
